# Columns and labels:
# [1] = tested on: mammalian thyroid parameters; conditions: orally administered; cited from earlier work
# [2] = interaction of molecular iodine with mineral oil, UV-visible absorbance; type: physicochemical; conditions: elemental iodine dissolved in mineral oil, 300-600 nm
# Procedure: The interaction of molecular iodine with mineral oil was evaluated. The following stock solutions were prepared for this experiment: 0.050 grams and 1.001 grams of elemental iodine crystals dissolved into about 80 ml of mineral oil in two different 100-ml flasks, and then filled to 100 ml with mineral oil. The absorbance spectrum between 300 and 600 nm for various mixtures of these two stock solutions were made in a UV/V is scanning spectrophotometer (Schimadzu 1125). The absorbance spectrums were analyzed and the extinction coefficient was calculated at appropriate wavelengths.
# The UV-visible spectra of iodine-in-mineral oil presents two peaks in the range of 300-600 nm; one peak is at 302 nm and the other is at 522 nm (the maximum absorbance is at 522 nm). The absorbance is proportional to concentration as predicted by Beer's Law. […] The two peaks are at 302 nm and 522 nm and are slightly variable in the test concentration range. The extinction coefficients (moles per 1000 grams)^−1 (per cm)^−1) at 302 and 522 nm were calculated to be 219 and 905 respectively.
# women = assay: six month study of molecular iodine in 111 women (IND #56,523); type: in vivo; conditions: 111 women, 0, 1.5, 3.0 or 6.0 mg per day for six months, in situ generation of molecular iodine
# Procedure: To determine the potential for molecular iodine to cause hyperthyroidism or hypothyroidism 111 women daily were dosed with either 0, 1.5, 3.0 or 6.0 mg of molecular iodine per day for six months. This study was performed under the guidance of the FDA (IND #56,523). The dosage form used relied upon in situ generation of molecular iodine as described in U.S. Pat. No. 5,885,592 as opposed to the aqueous iodine therapy of Table 5. The total exposure to molecular iodine in this study was 3.619 subject years.
# [3] = administered orally; cited from earlier work
# [4] = stability of a solution of molecular iodine in mineral oil at 40° C.; type: physicochemical
# Procedure: The stability of a solution of molecular iodine in oil was measured. Crystals of elemental iodine were dissolved at room temperature in mineral oil. The concentrations of molecular iodine were approximately 0.6, 3.0 and 6.0 mg/mL. The absorbance was determined at 522 nm as a measure of the concentration of molecular iodine. Samples were stored in 500 mL amber glass bottles (Fisher Cat. No. 05-719-466) with Teflon lined screw-tops. The screw tops contained a septum to sample the fluids using a syringe without opening the bottle. The bottles were stored in an incubator at 40° C.
# Samples were analyzed monthly to determine if there was a loss of molecular iodine. On the day of an analysis, a bottle was removed from the incubator, placed into room-temperature water covering approximately ¾ of the bottle, and allowed to cool for at least 6 hours. A sample was removed with a glass syringe and its absorbance was determined at 522 nm.
SMILES,"concentration negatively affecting mammalian thyroid parameters, fold less than for a comparable effect from molecular iodine [1] [fold]",change of absorbance with time (stability in mineral oil) [2],hyperthyroidism or hypothyroidism (women),"treatment-emergent adverse events, laboratory parameters, vital signs versus dose (women)",oral toxicity compared with iodide [3],"Percentage of Initial Absorbance (OD522nm) ([4]; 0.6 mg/mL I2 in mineral oil, Day 14) [%]","Percentage of Initial Absorbance (OD522nm) ([4]; 0.6 mg/mL I2 in mineral oil, Day 32) [%]","Percentage of Initial Absorbance (OD522nm) ([4]; 0.6 mg/mL I2 in mineral oil, Day 56) [%]","Percentage of Initial Absorbance (OD522nm) ([4]; 0.6 mg/mL I2 in mineral oil, Day 97) [%]","Percentage of Initial Absorbance (OD522nm) ([4]; 0.6 mg/mL I2 in mineral oil, Day 143) [%]","Percentage of Initial Absorbance (OD522nm) ([4]; 3.0 mg/mL I2 in mineral oil, Day 14) [%]","Percentage of Initial Absorbance (OD522nm) ([4]; 3.0 mg/mL I2 in mineral oil, Day 32) [%]","Percentage of Initial Absorbance (OD522nm) ([4]; 3.0 mg/mL I2 in mineral oil, Day 56) [%]","Percentage of Initial Absorbance (OD522nm) ([4]; 3.0 mg/mL I2 in mineral oil, Day 97) [%]","Percentage of Initial Absorbance (OD522nm) ([4]; 3.0 mg/mL I2 in mineral oil, Day 143) [%]","Percentage of Initial Absorbance (OD522nm) ([4]; 6.0 mg/mL I2 in mineral oil, Day 14) [%]","Percentage of Initial Absorbance (OD522nm) ([4]; 6.0 mg/mL I2 in mineral oil, Day 32) [%]","Percentage of Initial Absorbance (OD522nm) ([4]; 6.0 mg/mL I2 in mineral oil, Day 56) [%]","Percentage of Initial Absorbance (OD522nm) ([4]; 6.0 mg/mL I2 in mineral oil, Day 97) [%]","Percentage of Initial Absorbance (OD522nm) ([4]; 6.0 mg/mL I2 in mineral oil, Day 143) [%]"
I [iodide],10,–,–,–,–,–,–,–,–,–,–,–,–,–,–,–,–,–,–,–
"II [I2, molecular iodine]",–,did not change with time,No hyperthyroidism or hypothyroidism was observed,"not associated with increases in incidence, severity and causality of treatment-emergent adverse events or clinically significant changes in laboratory parameters or vital signs",less toxic than iodide,99.5,99.1,98.2,97.8,96.4,100.6,100.5,100.4,100.1,100.8,100.3,100.2,99.2,101.4,100.7

# — patent publication US20030026852A1, “Molecular iodine pharmaceutical composition” (SYMBOLLON CORPORATION, priority 2001, published 2003)
